Test results: PubChem BioAssay (NCI)
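How tested: cells in 96-well plates exposed to compound for 48 hours at five concentrations. GI50 marks 50% less growth. TGI: total growth inhibition.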

What was measured:
Experiment in all cases: growth of human tumour cells (NCI), 48 h
[1] = tested on: SW-620 colon
[2] = tested on: SNB-19 CNS
[3] = tested on: SK-MEL-5 melanoma
[4] = tested on: OVCAR-4 ovarian
[5] = tested on: TK-10 renal
[6] = tested on: RPMI-8226 leukemia
[7] = tested on: ACHN renal
[8] = tested on: SR leukemia
[9] = tested on: NCI-H226 lung
[10] = tested on: SN12C renal

SMILES | GI50 [1] [µM] | TGI [1] [µM] | GI50 [2] [µM] | TGI [2] [µM] | GI50 [3] [µM] | TGI [3] [µM] | GI50 [4] [µM] | TGI [4] [µM] | GI50 [5] [µM] | TGI [5] [µM] | GI50 [6] [µM] | TGI [6] [µM] | GI50 [7] [µM] | TGI [7] [µM] | GI50 [8] [µM] | TGI [8] [µM] | GI50 [9] [µM] | TGI [9] [µM] | GI50 [10] [µM] | TGI [10] [µM]
CN1C(=O)CNC(=O)[C@H](NC(=O)c2nc3ccccc3cc2O)CSSC[C@H]1C(=O)NCCc1nc2ccccc2cc1O | 5.65 | 35.3 | 33.5 | > 100 | 3.05 | 12.7 | 25 | > 73.1 | 20.5 | 47.3 | 14.5 | 62.3 | 15.3 | 38.7 | 0.387 | 1.96 | 17.3 | 65.2 | 22.4 | > 63.4
ClCCN(CCCl)c1ccc(-n2cnc3c(Cl)ncnc32)cc1 | 1.76 | 3.29 | 5.4 | 17.4 | 2.36 | 5.94 | 1.85 | 3.33 | 13 | 81.9 | 9.69 | 59.1 | 1.84 | 3.54 | 2.06 | 6.55 | 13.3 | 27.7 | 3.17 | 10.2
CC(=O)OC1CCn2nnc(COC(=O)NC(C)C)c21 (stereo not given) | – | > 100 | – | > 100 | – | > 100 | – | > 100 | – | > 100 | – | > 100 | – | > 100 | – | > 100 | – | > 100 | – | > 100
CC(=O)/C=C/C1=C(c2cc3ccccc3s2)c2ccccc2CC1 | 32.6 | > 100 | 50.7 | > 100 | 16.3 | 35.3 | 25.9 | > 100 | 61.1 | > 100 | 3.86 | 24.4 | 19.4 | 45.5 | 8.59 | > 100 | 19.8 | 40.8 | 36.5 | > 100
CCC(Sc1nnc2c3ccccc3n(CC)c2n1)C(=O)Nc1ccccc1OC (stereo not given) | > 100 | > 100 | > 100 | > 100 | 60.8 | > 100 | > 75.7 | > 100 | > 100 | > 100 | 4.35 | > 72.8 | 83.8 | > 100 | > 100 | > 100 | 53.6 | > 100 | 3.47 | > 100
COc1cc(CSc2nc3ccc(C)cc3c(=O)n2Cc2ccccc2)cc(OC)c1OC | 1.56 | > 100 | 5.93 | > 100 | 1.45 | 12.8 | 5.01 | 63.4 | 6.47 | 47.9 | 2.96 | > 100 | 3.89 | 55.7 | 0.372 | 11.1 | 11.5 | 96.1 | 6.53 | > 100
COCCOC(=O)C1=C(C)NC2=C(C(=O)CC(c3ccccc3OC)C2)C1c1cccc(O)c1 (stereo not given) | 12.5 | 33.5 | 16 | > 100 | 3.54 | 16.6 | 8.98 | > 80.5 | 4.26 | 30.7 | 4.01 | 31.4 | 19.1 | 71.2 | 8.76 | > 59.6 | 8.64 | 35.7 | 21.7 | > 100
Cc1c(C(=O)/C=C/c2ccc(Cl)cc2)[n+](=O)c2ccccc2n1[O-] | – | 21.9 | – | 27.8 | – | – | – | 28.3 | – | 35.5 | – | 42.4 | – | 29.6 | – | 73.1 | – | 33.7 | – | 23.3
COc1ccc(C(O)CNC(=O)c2ccccc2)cc1 (stereo not given) | – | > 100 | – | > 100 | – | > 100 | – | > 100 | – | > 100 | – | > 100 | – | > 100 | – | > 100 | – | > 100 | – | > 100
CN1CCN(c2ccc3nc(-c4cc(C(C)(C)C)c(O)c(C(C)(C)C)c4)[nH]c3c2)CC1 | 2.33 | 4.06 | 3.29 | 12.4 | 1.76 | 3.17 | 5.43 | 19 | 4.79 | 17.2 | 2.08 | 4.85 | 3.06 | 8.62 | 2.45 | 8.58 | 14.7 | 32.4 | 4.64 | 16.5
C#C[C@]1(O)CC[C@H]2[C@@H]3CC=C4c5sc(N=C(N)N)nc5CC[C@]4(C)[C@H]3CC[C@@]21C | 0.541 | 1.96 | 1.11 | 2.41 | 0.628 | 1.66 | 1.33 | 2.75 | 1.85 | 3.44 | 0.153 | 0.864 | 0.971 | 2.21 | 0.348 | 1.98 | 1.82 | 3.97 | 1.31 | 2.72
O=C1OC(c2ccc(O)c(-c3ccccc3)c2)(c2ccc(O)c(-c3ccccc3)c2)c2c(Cl)c(Cl)c(Cl)c(Cl)c21 | – | > 100 | – | > 100 | – | > 100 | – | > 100 | – | > 100 | – | > 100 | – | > 100 | – | > 100 | – | > 100 | – | > 100
COC(=O)c1ccccc1NC(=O)/C(=N\NC(C)(C)C)C(C#N)c1nc(-c2ccc([N+](=O)[O-])cc2)cs1 (stereo not given) | – | > 100 | – | > 100 | – | > 100 | – | > 100 | – | – | – | > 100 | – | > 100 | – | > 100 | – | > 100 | – | > 100
CCC[C@H](N[C@@H]1CCc2cc(F)cc(F)c2C1)C(=O)Nc1cn(C(C)(C)CNCC(C)(C)C)cn1 | 25 | > 100 | 26.6 | > 94.6 | 12.2 | 24.8 | 23.5 | > 100 | 21.8 | 72.7 | 5.98 | 34.8 | 22.7 | > 96.7 | 14.2 | > 79 | 16.5 | 52.9 | 24.8 | > 100
CO[C@@H]1[C@@H](OC2OC(C)C(OC3CC(C)(O)C(OC(=O)CC(C)C)C(C)O3)C(N(C)C)C2O)[C@@H](CC=O)C[C@@H](C)C(=O)/C=C/C2O[C@H]2C[C@@H](C)OC(=O)C[C@H]1OC(C)=O (stereo not given in full) | – | 35.8 | – | 60.1 | – | 32.9 | – | 86.7 | – | 50.9 | – | 47.4 | – | 46.8 | – | 42.4 | – | 33.5 | – | 46.2
Cc1ccc(NC(=O)/C(CC(=O)c2c[n+](=O)c3ccccc3n2O)=N\NC(=O)C[n+]2ccccc2)cc1 | – | > 100 | – | > 100 | – | > 100 | – | > 100 | – | > 100 | – | > 100 | – | > 100 | – | > 100 | – | > 100 | – | > 100
CC(C)(C)c1ccc([I+]c2ccc(C(C)(C)C)cc2)cc1 | 1.56 | 10.7 | 1.11 | 3.24 | 0.348 | 1.19 | 0.658 | 11 | 2.62 | 9.75 | 0.389 | 1.99 | 3.25 | 12.2 | 0.935 | 3.15 | 1.29 | 5.32 | 1.99 | 5.21
N=C(N)SCCc1cn2ccccc2n1 | – | > 100 | – | > 100 | – | > 100 | – | > 100 | – | > 100 | – | > 100 | – | > 100 | – | > 100 | – | > 100 | – | > 100
O=C1c2ccccc2C(=O)N1c1ccc(S(=O)(=O)Nc2ncccn2)cc1 | > 100 | > 100 | > 100 | > 100 | > 100 | > 100 | > 100 | > 100 | > 100 | > 100 | > 100 | > 100 | > 100 | > 100 | > 100 | > 100 | > 100 | > 100 | > 100 | > 100
COc1ccc2c(c1)c(C1(c3cn(C)c4ccc(OC)cc34)C(=O)Nc3ccc(F)cc31)cn2C | 7.48 | > 100 | 12.2 | > 100 | 5.64 | 18.9 | 3.92 | > 100 | – | – | 6.77 | > 100 | 4.63 | > 100 | 5.59 | 82 | 11.9 | > 100 | 4.82 | 31.5
O=C(CCC(=O)Nc1ccc(Cl)cc1)CC(=O)c1ccc(F)cc1 | – | > 100 | – | > 100 | – | – | – | > 100 | – | > 100 | – | > 100 | – | > 100 | – | > 100 | – | > 100 | – | > 100
